Tests used:
Assay in all cases: Test A pre/postemergence
Assay type in all cases: in vivo
[1] = tested on: barnyardgrass (Echinochloa crus-galli)
Experimental: (§1) Seeds of barnyardgrass (Echinochloa crus-galli), crabgrass (Digitaria sanguinalis), giant foxtail (Setaria faberi), morningglory (Ipomoea spp.), redroot pigweed (Amaranthus retroflexus) and velvetleaf (Abutilon theophrasti) were planted into a blend of loam soil and sand and treated preemergence with a directed soil spray using test chemicals formulated in a non-phytotoxic solvent mixture which included a surfactant. At the same time these species were also treated with postemergence applications of test chemicals formulated in the same manner.
(§2) Plants ranged in height from 2 to 10 cm and were in the 1- to 2-leaf stage for the postemergence treatment. Treated plants and untreated controls were maintained in a greenhouse for approximately ten days, after which time all treated plants were compared to untreated controls and visually evaluated for injury. Plant response ratings, summarized in Table A, are based on a 0 to 100 scale where 0 is no effect and 100 is complete control. A dash (-) response means no test results.

[2] = tested on: crabgrass (Digitaria sanguinalis)
Experimental: as §1, §2

[3] = tested on: giant foxtail (Setaria faberi)
Experimental: as §1, §2

[4] = tested on: morningglory (Ipomoea spp.)
Experimental: as §1, §2

[5] = tested on: redroot pigweed (Amaranthus retroflexus)
Experimental: as §1, §2

[6] = tested on: velvetleaf (Abutilon theophrasti)
Experimental: as §1, §2

[7] = Postemergence, 125 g ai/ha, 0 to 100 scale (0 no effect, 100 complete control)
[8] = Postemergence, 500 g ai/ha, 0 to 100 scale (0 no effect, 100 complete control)
[9] = Preemergence, 125 g ai/ha, 0 to 100 scale where 0 is no effect and 100 is complete control, approximately ten days
[10] = Preemergence, 500 g ai/ha, 0 to 100 scale where 0 is no effect and 100 is complete control, approximately ten days

Structure (SMILES)	Plant response rating, Barnyardgrass [1, 7]	Plant response rating, Barnyardgrass [1, 8]	Plant response rating, Barnyardgrass [1, 9]	Plant response rating, Barnyardgrass [1, 10]	Plant response rating, Crabgrass [2, 7]	Plant response rating, Crabgrass [2, 8]	Plant response rating, Crabgrass [2, 9]	Plant response rating, Crabgrass [2, 10]	Plant response rating, Foxtail, Giant [3, 7]	Plant response rating, Foxtail, Giant [3, 8]	Plant response rating, Foxtail, Giant [3, 9]	Plant response rating, Foxtail, Giant [3, 10]	Plant response rating, Morningglory [4, 7]	Plant response rating, Morningglory [4, 8]	Plant response rating, Morningglory [4, 9]	Plant response rating, Morningglory [4, 10]	Plant response rating, Pigweed [5, 7]	Plant response rating, Pigweed [5, 8]	Plant response rating, Pigweed [5, 9]	Plant response rating, Pigweed [5, 10]	also measured
COC(=O)c1nc(-c2ccc(C)cc2)nc(N)c1Br [Compound 82]	40	50	0	15	0	0	0	0	0	0	0	0	20	40	0	0	45	75	0	70	Plant response rating, Velvetleaf [6, 7]: 90; Plant response rating, Velvetleaf [6, 8]: 90; Plant response rating, Velvetleaf [6, 9]: 5; Plant response rating, Velvetleaf [6, 10]: 35
COC(=O)c1nc(-c2ccc(C)c(F)c2)nc(N)c1Cl [Compound 86]	10	30	0	0	0	0	0	0	0	0	0	0	0	20	0	0	20	50	0	5	Plant response rating, Velvetleaf [6, 7]: 70; Plant response rating, Velvetleaf [6, 8]: 85; Plant response rating, Velvetleaf [6, 9]: 0; Plant response rating, Velvetleaf [6, 10]: 10
Cc1ccc(-c2nc(N)c(Cl)c(C(=O)O)n2)cc1F [Compound 87]	50	90	0	20	0	10	10	75	0	30	0	0	0	15	0	20	55	90	85	100	Plant response rating, Velvetleaf [6, 7]: 90; Plant response rating, Velvetleaf [6, 8]: 95; Plant response rating, Velvetleaf [6, 9]: 25; Plant response rating, Velvetleaf [6, 10]: 95
Cc1ccc(-c2nc(N)c(Br)c(C(=O)O)n2)cc1 [Compound 89]	60	85	0	50	0	10	0	60	10	45	0	10	0	30	0	0	50	100	80	100	Plant response rating, Velvetleaf [6, 7]: 70; Plant response rating, Velvetleaf [6, 8]: 95; Plant response rating, Velvetleaf [6, 9]: 20; Plant response rating, Velvetleaf [6, 10]: 75
Nc1nc(-c2ccc(F)cc2)nc(C(=O)O)c1Cl [Compound 90]	0	10	0	35	0	20	10	50	0	30	0	15	20	65	0	25	35	90	70	80	Plant response rating, Velvetleaf [6, 7]: 65; Plant response rating, Velvetleaf [6, 8]: 85; Plant response rating, Velvetleaf [6, 9]: 10; Plant response rating, Velvetleaf [6, 10]: 45
Nc1nc(-c2ccc(F)cc2)nc(C(=O)O)c1Br [Compound 93]	0	0	5	30	0	0	25	45	0	0	5	35	40	55	0	5	45	70	80	90	Plant response rating, Velvetleaf [6, 7]: 65; Plant response rating, Velvetleaf [6, 8]: 80; Plant response rating, Velvetleaf [6, 9]: 55; Plant response rating, Velvetleaf [6, 10]: 85
COC(=O)c1nc(-c2cccc(C)c2)nc(N)c1Cl [Compound 97]	30	10	0	0	0	0	15	25	0	0	5	5	45	50	0	0	10	30	25	70	Plant response rating, Velvetleaf [6, 7]: 60; Plant response rating, Velvetleaf [6, 8]: 70; Plant response rating, Velvetleaf [6, 9]: 45; Plant response rating, Velvetleaf [6, 10]: 50
CCOC(=O)c1nc(-c2cccc(Cl)c2)nc(N)c1Cl [Compound 100]	0	10	5	0	0	0	10	0	0	0	0	0	40	55	0	0	10	25	20	0	Plant response rating, Velvetleaf [6, 7]: 50; Plant response rating, Velvetleaf [6, 8]: 70; Plant response rating, Velvetleaf [6, 9]: 0; Plant response rating, Velvetleaf [6, 10]: 0
CCOC(=O)c1nc(-c2cc(Br)cc(OC)c2)nc(N)c1Cl [Compound 101]	0	0	0	0	0	0	0	0	0	0	0	0	0	0	0	0	0	5	0	0	Plant response rating, Velvetleaf [6, 7]: 0; Plant response rating, Velvetleaf [6, 8]: 15; Plant response rating, Velvetleaf [6, 9]: 0; Plant response rating, Velvetleaf [6, 10]: 0

Reference: US8802597B2, “Herbicidal pyrimidines” (E I du Pont de Nemours and Company, priority 2003, dated 2014)
